# What was measured:
# [1] = Body weight of mice in xenograft studies; assay type: in vivo
# Experimental: (§1) Female athymic nude mice and SCID/Beige mice (5-8 weeks of age) were obtained from Charles River Laboratory and were housed in Innovive IVC disposable cages on HEPA filtered ventilated racks with ad libitum access to rodent chow and water. Five million cells in 100 μL, serum-free medium were implanted subcutaneously in the right flank region of the mouse. Karpas299 cells were implanted into the SCID/Beige mice. KM12 cells, NIH3T3 EML4-ALK wild type mutant cells, and NIH3T3 SCD4-ROS1 wild type mutant cells were implanted into the athymic nude mice, respectively. All models except KM12 were implanted with 50% matrigel (Corning, Inc) in the medium. Tumor size and body weight were measured on designated days. Tumor size was measured with an electronic caliper and tumor volume was calculated as the product of length*width^2*0.5.
# Female athymic nude mice and SCID/Beige mice (5-8 weeks of age) were obtained from Charles River Laboratory and were housed in Innovive IVC disposable cages on HEPA filtered ventilated racks with ad libitum access to rodent chow and water. Five million cells in 100 μL serum-free medium were implanted subcutaneously in the right flank region of the mouse. Ba/F3 EML4-ALK wild type and G1202R mutant cells, Ba/F3 CD74-ROS1 wild type and G2032R mutant cells were implanted into the SCID/Beige mice. NIH3T3 CD74-ROS1 G2032 mutant cells, NIH3T3 LMNA-TRKA wild type and G595R mutant cells were implanted into the athymic nude mice, respectively. All models were implanted with 50% matrigel (Corning, Inc) in the medium. Tumor size and body weight were measured on designated days. Tumor size was measured with an electronic caliper and tumor volume was calculated as the product of length*width^2*0.5.
# PLK4 = target: T1, PLK4 (Homo sapiens, UniProt O00444); assay: Biochemical kinase assay (Reaction Biology); conditions: 10 μM ATP
# T1 construct: purchased Reaction Biology Corporation (contract assay)
# Experimental: (§3) Specific kinase/substrate pairs along with required cofactors were prepared in reaction buffer; 20 mM Hepes pH 7.5, 10 mM MgCl2, 1 mM EGTA, 0.02% Brij35, 0.02 mg/ml BSA, 0.1 mM Na3VO4, 2 mM DTT, 1% DMSO (for specific details of individual kinase reaction components see Supplementary Table 2). Compounds were delivered into the reaction, followed ˜20 minutes later by addition of a mixture of ATP (Sigma, St. Louis Mo.) and ^33P ATP (Perkin Elmer, Waltham Mass.) to a final concentration of 10 μM. Reactions were carried out at room temperature for 120 min, followed by spotting of the reactions onto P81 ion exchange filter paper (Whatman Inc., Piscataway, N.J.). […] IC50 values and curve fits were obtained using Prism (GraphPad Software).
# AKT [2] = assay: Immunoblotting downstream signaling, Karpas-299 cells; assay type: cell-based; conditions: Homo sapiens, read-out: downstream AKT phosphorylation IC50
# Experimental: (§2) NSCLC cell line H2228 (harboring endogenous EML4-ALK fusion gene), HCC78 cells (harboring endogenous SLC34A2-ROS1 fusion gene), Karpas-299 cells (harboring endogenous NPM-ALK fusion gene) or SET-2 (harboring endogenous JAK2V617F activating mutation) were cultured in RPMI medium, and KM12 (harboring endogenous TPM3-TRKA fusion gene) cell line was cultured in DMEM medium, both supplemented with 10% fetal bovine serum and 100 U/mL of penicillin/streptomycin. Ba/F3 and NIH3T3 cells stably expressing ALK or ROS1 (WT or mutant) were culture as mentioned above. […] Protein lysates (approximately 20 μg) was resolved on 4-12% Bolt Bis-Tris precasted gels with MES running buffer (Life Technologies), transferred to nitrocellulose membranes using Trans-Blot Turbo Transfer System (Bio-Rad) and detected with antibodies targeting phosphorylated ALK Y1604 (Cell Signaling Technology), total ALK (Cell Signaling Technology), phosphorylated ROS1 and total ROS1 (Cell Signaling Technology), phosphorylated TRK A/B (Cell Signaling Technology), total TRKA antibody (Santa Cruz Biotechnology), phosphorylated STAT3 and STAT5, total STAT3 and STAT5 (Cell Signaling Technology), phosphorylated AKT (Cell Signaling Technology), total AKT (Cell Signaling Technology), phosphorylated ERK (Cell Signaling Technology), total ERK (Cell Signaling Technology) and Tubulin (Sigma). […]
# STAT3 [3] = assay: as above; assay type: cell-based; conditions: Homo sapiens, read-out: downstream STAT3 phosphorylation IC50
# Experimental: as §2
# IRR = target: T2, IRR (Homo sapiens, UniProt P14616); assay: Biochemical kinase assay (Reaction Biology); conditions: 10 μM ATP
# T2 construct: purchased Reaction Biology Corporation (contract assay)
# Experimental: as §3
# [4] = system: Ba/F3 TPR-ALK L1196M cell line; assay: Cell proliferation assay at Advanced Cellular Dynamics (CellTiter-Glo); assay type: cell-based; conditions: Mus musculus, BaF3, 48 hours
# AKT [5] = assay: Immunoblotting downstream signaling, HCC78 cells; assay type: cell-based; conditions: Homo sapiens; HCC78 cell line; read-out: downstream AKT phosphorylation IC50
# Experimental: as §2
# STAT3 [6] = assay: Immunoblotting downstream signaling, HCC78 cells; assay type: cell-based; conditions: Homo sapiens; HCC78 cell line; read-out: downstream STAT3 phosphorylation IC50
# Experimental: as §2
# [7] = system: NIH3T3 SDC4-ROS1 WT tumors; assay: NIH3T3 SDC4-ROS1 WT subcutaneous xenograft model; assay type: in vivo, athymic nude mice; conditions: 26 days
# Experimental: as §1
# The SDC4-ROS1 fusion gene is considered as the driver for tumor progression in NSCLC. […] The control group of mice were given vehicle only. Tumor volume was measured by caliper on the indicated days and is shown at mean±sem in FIG. 9.
# LCK = target: T3, LCK (Homo sapiens, UniProt P06239); assay: Biochemical kinase assay (Reaction Biology); conditions: 10 μM ATP
# T3 construct: purchased Reaction Biology Corporation (contract assay)
# Experimental: as §3
# TXK = target: T4, TXK (Homo sapiens, UniProt P42681); assay: Biochemical kinase assay (Reaction Biology); conditions: 10 μM ATP
# T4 construct: purchased Reaction Biology Corporation
# Experimental: as §3
# EPHA1 = target: T5, EPHA1 (Homo sapiens, UniProt P21709); assay: Biochemical kinase assay (Reaction Biology); conditions: 10 μM ATP
# T5 construct: purchased Reaction Biology Corporation (contract assay)
# Experimental: as §3
# [8] = system: Ba/F3 EML4-ALK C1156Y cell line; assay: Cell proliferation assay (CellTiter-Glo); assay type: cell-based; conditions: Mus musculus, 72 hours
# MARK3 = target: T6, MARK3 (Homo sapiens, UniProt P27448); assay: Biochemical kinase assay (Reaction Biology); conditions: 10 μM ATP
# T6 construct: purchased Reaction Biology Corporation (contract assay)
# Experimental: as §3
# IGFR = target: T7, IGFR (Homo sapiens, UniProt P08069); assay: Biochemical kinase assay (Reaction Biology); conditions: 10 μM ATP
# T7 construct: purchased Reaction Biology Corporation (contract assay)
# T7 sequence (P08069 31-1367): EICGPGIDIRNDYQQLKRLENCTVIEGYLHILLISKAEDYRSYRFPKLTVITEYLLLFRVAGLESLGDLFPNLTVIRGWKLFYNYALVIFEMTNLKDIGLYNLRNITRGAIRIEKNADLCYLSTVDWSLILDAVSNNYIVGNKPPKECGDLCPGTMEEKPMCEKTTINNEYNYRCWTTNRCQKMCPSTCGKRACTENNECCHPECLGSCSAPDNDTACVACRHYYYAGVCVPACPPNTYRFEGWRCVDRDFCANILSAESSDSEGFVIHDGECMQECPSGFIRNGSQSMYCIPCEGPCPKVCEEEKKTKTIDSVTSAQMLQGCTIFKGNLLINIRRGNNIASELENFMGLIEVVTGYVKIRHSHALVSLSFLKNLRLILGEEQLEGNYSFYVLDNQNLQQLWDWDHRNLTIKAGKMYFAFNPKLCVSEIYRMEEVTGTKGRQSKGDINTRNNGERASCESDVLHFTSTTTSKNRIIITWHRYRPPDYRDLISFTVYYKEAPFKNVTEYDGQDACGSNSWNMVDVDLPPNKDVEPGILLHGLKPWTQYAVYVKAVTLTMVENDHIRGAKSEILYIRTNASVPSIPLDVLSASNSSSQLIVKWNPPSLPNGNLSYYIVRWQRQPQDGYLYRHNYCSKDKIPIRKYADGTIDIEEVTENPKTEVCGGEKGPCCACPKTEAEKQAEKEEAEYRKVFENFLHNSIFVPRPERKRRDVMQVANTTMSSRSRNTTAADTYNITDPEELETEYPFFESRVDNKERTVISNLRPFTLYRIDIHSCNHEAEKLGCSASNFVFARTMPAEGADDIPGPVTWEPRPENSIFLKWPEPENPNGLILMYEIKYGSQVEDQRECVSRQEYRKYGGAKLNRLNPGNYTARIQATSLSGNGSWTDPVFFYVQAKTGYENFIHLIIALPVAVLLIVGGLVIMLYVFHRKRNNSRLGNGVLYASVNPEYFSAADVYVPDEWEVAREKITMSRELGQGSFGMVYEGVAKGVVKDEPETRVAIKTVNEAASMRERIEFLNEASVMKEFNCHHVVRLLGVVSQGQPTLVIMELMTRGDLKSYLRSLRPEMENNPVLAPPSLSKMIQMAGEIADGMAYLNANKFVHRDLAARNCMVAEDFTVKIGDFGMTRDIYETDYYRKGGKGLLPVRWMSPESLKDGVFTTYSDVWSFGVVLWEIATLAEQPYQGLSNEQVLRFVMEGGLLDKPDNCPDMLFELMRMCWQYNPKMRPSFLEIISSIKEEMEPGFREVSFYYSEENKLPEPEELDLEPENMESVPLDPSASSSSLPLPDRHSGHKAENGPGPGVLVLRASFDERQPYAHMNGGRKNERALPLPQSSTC
# Experimental: as §3
# T4 sequence (P42681 whole entry): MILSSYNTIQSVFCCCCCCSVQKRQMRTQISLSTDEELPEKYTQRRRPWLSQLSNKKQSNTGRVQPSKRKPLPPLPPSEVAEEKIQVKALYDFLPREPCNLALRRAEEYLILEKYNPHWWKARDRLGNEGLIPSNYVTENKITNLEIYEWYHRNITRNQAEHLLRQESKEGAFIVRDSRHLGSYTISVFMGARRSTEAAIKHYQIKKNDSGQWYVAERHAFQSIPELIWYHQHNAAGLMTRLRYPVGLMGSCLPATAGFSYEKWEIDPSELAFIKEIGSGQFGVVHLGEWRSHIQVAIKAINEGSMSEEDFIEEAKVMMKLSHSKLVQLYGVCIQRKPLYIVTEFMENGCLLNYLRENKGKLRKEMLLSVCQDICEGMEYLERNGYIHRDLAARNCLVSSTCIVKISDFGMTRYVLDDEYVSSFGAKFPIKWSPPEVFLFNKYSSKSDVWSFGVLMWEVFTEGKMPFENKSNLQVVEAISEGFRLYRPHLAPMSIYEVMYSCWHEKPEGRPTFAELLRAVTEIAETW
# T3 sequence (P06239 whole entry): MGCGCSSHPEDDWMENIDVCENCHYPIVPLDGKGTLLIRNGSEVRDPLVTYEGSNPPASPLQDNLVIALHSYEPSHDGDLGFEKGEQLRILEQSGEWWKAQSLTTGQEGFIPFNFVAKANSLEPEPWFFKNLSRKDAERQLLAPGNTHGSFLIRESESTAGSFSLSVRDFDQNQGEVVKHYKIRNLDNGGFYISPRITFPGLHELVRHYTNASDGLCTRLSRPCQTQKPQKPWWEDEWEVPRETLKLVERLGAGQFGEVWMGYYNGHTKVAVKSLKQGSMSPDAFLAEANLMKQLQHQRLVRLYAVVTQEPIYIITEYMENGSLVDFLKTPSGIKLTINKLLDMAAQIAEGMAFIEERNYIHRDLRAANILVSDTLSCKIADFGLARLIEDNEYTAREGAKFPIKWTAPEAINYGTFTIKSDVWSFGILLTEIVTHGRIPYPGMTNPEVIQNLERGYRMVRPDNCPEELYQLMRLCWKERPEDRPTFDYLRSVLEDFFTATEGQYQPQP
# T2 sequence (P14616 27-1297): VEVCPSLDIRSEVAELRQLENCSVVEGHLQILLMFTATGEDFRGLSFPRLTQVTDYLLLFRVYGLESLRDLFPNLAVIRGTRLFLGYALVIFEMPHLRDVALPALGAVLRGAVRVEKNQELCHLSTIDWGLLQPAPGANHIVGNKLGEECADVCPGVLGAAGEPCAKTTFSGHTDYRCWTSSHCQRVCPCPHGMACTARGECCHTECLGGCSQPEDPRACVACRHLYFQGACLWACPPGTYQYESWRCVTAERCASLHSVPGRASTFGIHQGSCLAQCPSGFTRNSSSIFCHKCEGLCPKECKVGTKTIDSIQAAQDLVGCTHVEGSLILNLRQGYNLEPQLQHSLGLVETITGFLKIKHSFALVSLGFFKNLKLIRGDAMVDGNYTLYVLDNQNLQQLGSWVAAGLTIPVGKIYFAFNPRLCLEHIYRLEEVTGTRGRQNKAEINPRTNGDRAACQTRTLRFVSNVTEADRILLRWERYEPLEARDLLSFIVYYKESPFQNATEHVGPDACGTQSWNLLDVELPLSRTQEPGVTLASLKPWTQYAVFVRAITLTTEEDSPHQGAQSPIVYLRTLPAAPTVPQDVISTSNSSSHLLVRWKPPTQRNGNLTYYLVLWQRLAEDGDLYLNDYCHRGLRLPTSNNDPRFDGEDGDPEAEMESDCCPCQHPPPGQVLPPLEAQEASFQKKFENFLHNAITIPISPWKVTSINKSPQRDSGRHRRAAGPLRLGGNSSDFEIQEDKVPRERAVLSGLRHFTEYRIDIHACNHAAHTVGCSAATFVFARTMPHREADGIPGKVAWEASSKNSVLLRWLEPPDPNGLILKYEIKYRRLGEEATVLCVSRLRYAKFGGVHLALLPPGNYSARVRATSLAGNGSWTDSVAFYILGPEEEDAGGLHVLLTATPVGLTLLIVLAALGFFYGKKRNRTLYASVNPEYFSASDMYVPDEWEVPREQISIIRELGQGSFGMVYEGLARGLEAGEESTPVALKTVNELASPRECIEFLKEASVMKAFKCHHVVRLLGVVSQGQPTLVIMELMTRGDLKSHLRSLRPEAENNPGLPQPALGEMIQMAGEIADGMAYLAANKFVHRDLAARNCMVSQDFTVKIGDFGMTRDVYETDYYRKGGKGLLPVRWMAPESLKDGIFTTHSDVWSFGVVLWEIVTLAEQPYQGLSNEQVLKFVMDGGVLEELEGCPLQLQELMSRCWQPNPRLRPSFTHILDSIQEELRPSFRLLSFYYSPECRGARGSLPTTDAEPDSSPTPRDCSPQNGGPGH
# T1 sequence (O00444 whole entry): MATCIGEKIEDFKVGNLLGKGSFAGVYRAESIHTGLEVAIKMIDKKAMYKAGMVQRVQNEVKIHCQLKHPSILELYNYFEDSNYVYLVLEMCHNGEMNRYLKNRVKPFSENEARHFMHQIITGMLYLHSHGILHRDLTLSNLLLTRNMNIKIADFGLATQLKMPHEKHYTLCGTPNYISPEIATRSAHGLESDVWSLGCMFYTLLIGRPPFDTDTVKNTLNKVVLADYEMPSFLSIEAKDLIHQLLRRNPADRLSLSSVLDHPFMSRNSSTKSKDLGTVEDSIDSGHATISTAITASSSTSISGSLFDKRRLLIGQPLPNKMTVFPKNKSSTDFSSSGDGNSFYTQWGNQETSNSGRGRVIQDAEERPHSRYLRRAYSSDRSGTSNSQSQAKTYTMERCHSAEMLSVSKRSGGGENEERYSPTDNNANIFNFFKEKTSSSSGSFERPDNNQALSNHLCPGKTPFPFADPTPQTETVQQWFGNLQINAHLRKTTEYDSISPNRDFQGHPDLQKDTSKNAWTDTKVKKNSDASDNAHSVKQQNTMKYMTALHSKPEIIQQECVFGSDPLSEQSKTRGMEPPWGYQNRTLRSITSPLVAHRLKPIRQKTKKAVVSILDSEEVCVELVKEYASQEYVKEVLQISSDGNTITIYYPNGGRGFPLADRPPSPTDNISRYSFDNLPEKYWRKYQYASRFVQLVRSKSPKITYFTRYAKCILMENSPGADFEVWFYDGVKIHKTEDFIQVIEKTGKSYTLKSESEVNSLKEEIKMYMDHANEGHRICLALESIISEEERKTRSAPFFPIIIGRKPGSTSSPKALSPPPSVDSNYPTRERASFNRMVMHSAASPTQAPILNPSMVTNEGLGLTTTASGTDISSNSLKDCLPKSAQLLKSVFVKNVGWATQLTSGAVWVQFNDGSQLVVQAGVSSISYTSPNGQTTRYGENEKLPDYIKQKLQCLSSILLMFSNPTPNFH
structure (smiles),measurement,setting,value
"C[C@H]1CNC(=O)c2cnn3ccc(nc23)N[C@H](C)c2cc(F)ccc2O1 [Compound 1, (7S,13R)-11-fluoro-7,13-dimethyl-6,7,13,14-tetrahydro-1,15-ethenopyrazolo[4,3-f][1,4,8,10]benzoxatriazacyclotridecin-4(5H)-one]",Body weight of the mice,"[1]; Ba/F3 CD74-ROS1 G2032R model, 15 and 75 mg/kg BID, 11 days",no body weight loss was observed
same,Body weight of the mice,"[1]; Ba/F3 CD74-ROS1 WT model, 15 and 75 mg/kg BID, 12 days",no body weight loss was observed
same,Body weight of the mice,"[1]; Ba/F3 EML4-ALK G1202R model, 15 and 75 mg/kg BID, 17 days",no body weight loss was observed
same,Body weight of the mice,"[1]; Ba/F3 EML4-ALK WT model, 15 and 75 mg/kg BID, 14 days",no body weight loss was observed
same,Body weight of the mice,"[1]; KM12 model Example 13, 15 and 75 mg/kg BID, seven days",No loss of body weight
same,Body weight of the mice,"[1]; KM12 model Example 15, 1, 3 and 15 mg/kg BID, seven days",No loss of body weight
same,Body weight of the mice,"[1]; Karpas 299 model, 15 and 50 mg/kg BID, seven days",no body weight loss was observed
same,Body weight of the mice,"[1]; NIH3T3 EML4-ALK WT model, 15 and 50 mg/kg BID, 12 days",no body weight loss was observed
same,Body weight of the mice,"[1]; NIH3T3 LMNA-TRKA G595R model, 3, 15 and 60 mg/kg BID, five days",no body weight loss was observed
same,Body weight of the mice,"[1]; NIH3T3 LMNA-TRKA WT model, 3 and 15 mg/kg BID, five days",No loss of body weight
same,IC50,PLK4,126 nM
same,IC50,AKT [2],1 to 3 nM
same,IC50,STAT3 [3],1 to 3 nM
same,IC50,IRR,18.1 nM
same,IC50,[4],13.4 nM
same,IC50,AKT [5],1 to 3 nM
same,IC50,STAT3 [6],1 to 3 nM
same,mice exhibiting tumor regression,[7]; 15 mg/kg BID orally,7 of 8
same,tumor regression (REG),[7]; 15 mg/kg BID orally,39%
same,mice exhibiting tumor regression,[7]; 50 mg/kg BID orally,7 of 7
same,tumor regression (REG),[7]; 50 mg/kg BID orally,69%
same,IC50,LCK,18.6 nM
same,IC50,TXK,3.17 nM
same,IC50,EPHA1,25 nM
same,IC50,[8],98 nM
same,IC50,MARK3,512 nM
same,IC50,IGFR,111 nM
